Data reported in patent US6914045B2, “Glycopeptide antibiotics” (Wyeth Holdings Corporation, priority 2001, dated 2005).
Values after ≈ are worked out from the molar mass of the structure shown. Like-named read-outs stand apart in the source and are kept apart here.

What was measured:
[1] = anatomic pathology (histopathology of heart and kidney) in mice; type: in vivo; conditions: CD-1 mice, 20 mg/kg intravenously daily for 9 days, necropsy day 10, microscopic histopathology
Method: Samples of tissues from necropsied mice were formalin-fixed, paraffin-embedded, sectioned, stained with hematoxylin and eosin, and examined microscopically. Histopathologic findings were recorded. These findings were subjectively graded on a scale corresponding to slight, mild, moderate, marked and severe as compared to untreated controls.

[2] = tested on: Gram-positive bacteria comprised of Staphylococcus sp., Streptococcus sp. and Enterococcus sp.; assay: in vitro antibacterial evaluation, MIC by broth dilution (strain not given); type: cell-based
Method: Methods for in vitro Antibacterial Evaluation (Table 1)
The minimum inhibitory concentration (MIC), the lowest concentration of the antibiotic which inhibits growth of the test organism, is determined by the broth dilution method using Muller-Hinton II […] (Baltimore Biological Laboratories) following the recommendations of the National Committee for Clinical Laboratory Standards [Methods for dilution antimicrobial susceptibility tests for bacteria that grow aerobically, approved standard M7-A2, National Committee for Clinical Laboratory Standards, Villanova, Pa.].
An inoculum level of 5×10^5 CFU/mL, and a range of antibiotic concentrations (64-0.06 μg/mL) is used. […] The test organisms include a spectrum of Gram-positive bacteria comprised of Staphylococcus sp., Streptococcus sp. and Enterococcus sp. These organisms include recent clinical isolates that are resistant to methicillin, penicillin and/or vancomycin.

[3] = tested on: Staphylococcus aureus-SMITH (GC 4543); assay: acute lethal infection in mice; type: in vivo; conditions: Staphylococcus, read-out: median effective dose (ED50), Staphylococcus aureus-SMITH (GC 4543)
Method in brief: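 Intraperitoneal challenge of female CD-1 mice with a bacterial dose lethal to untreated animals within 24-48 hr; single iv treatment 30 min later, 5 mice per dose level. Survival is scored at day 7 and pooled from three experiments to give the median effective dose.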

Staphylococcus sp. = assay: in vitro antibacterial evaluation, MIC by broth dilution; type: cell-based; conditions: broth dilution, 18 hours at 35° C.
Method in brief: (§1)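 Test organisms, which included recent clinical isolates resistant to methicillin, penicillin and/or vancomycin, were inoculated at 5×10^5 CFU/mL into Muller-Hinton II […] containing antibiotic at 64-0.06 μg/mL. Minimum inhibitory concentrations were then read as the lowest level inhibiting growth.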

Escherichia coli = assay: as above; type: cell-based; conditions: 18 hours at 35° C.
Method in brief: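 Following National Committee for Clinical Laboratory Standards recommendations (M7-A2), susceptibility was measured by dilution in Muller-Hinton II […]. Bacteria were seeded at 5×10^5 CFU/mL against compound concentrations from 64 down to 0.06 μg/mL.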

Enterococcus sp. = assay: as above; type: cell-based; conditions: broth dilution, 18 hours at 35° C.
Method in brief: as §1

Streptococcus sp. = assay: as above; type: cell-based; conditions: broth dilution, 18 hours at 35° C.
Method in brief: as §1

N=C1NCC(C(O)C2NC(=O)[C@H](C(O)C3CNC(=N)N3)NC(=O)C(Cc3ccc(O)cc3)NC(=O)[C@H](Cc3ccccc3)NC(=O)CNC(=O)[C@H](CO)NC2=O)N1 (stereo in doubt) [Example 280a, Cyclo[glycylphenylalanyltyrosyl-3-(2-iminoimidazolidin-4-yl)seryl-3-(2-iminoimidazolidin-4-yl)serylseryl]]
Anatomical Pathology (Day 10), Heart [1]: 0 | Anatomical Pathology (Day 10), Kidney [1]: ++ | MIC ([2]; Table 2 section r2574-r2600, column 1, 18 hours at 35° C., read-out: MIC, strain of column 1): > 128 µg/mL | MIC ([2]; Table 2 section r2574-r2600, column 2, 18 hours at 35° C., read-out: MIC, strain of column 2): 128 µg/mL (≈ 161 µM) | MIC ([2]; Table 2 section r2574-r2600, column 3, 18 hours at 35° C., read-out: MIC, strain not given): > 128 µg/mL | MIC ([2]; Table 2 section r2574-r2600, column 5, 18 hours at 35° C., read-out: MIC, strain of column 5): > 128 µg/mL | MIC ([2]; Table 2 section r2574-r2600, column 7, 18 hours at 35° C., read-out: MIC, strain not given): > 128 µg/mL | MIC ([2]; Table 2 section r2574-r2600, column 9, 18 hours at 35° C., read-out: MIC, strain of column 9): > 128 µg/mL | MIC ([2]; Table 2 section r2574-r2600, column 10, 18 hours at 35° C., read-out: MIC, strain of column 10): > 128 µg/mL | ED50 [3]: > 8 mg/kg | MIC (Staphylococcus sp.; Staphylococcus, read-out: MIC Coagulase Negative Staphylococcus (GC 4547)): 128 µg/mL (≈ 161 µM) | MIC (Staphylococcus sp.; Staphylococcus, read-out: MIC Coagulase Negative Staphylococcus (GC 4548)): > 128 µg/mL | MIC (Staphylococcus sp.; Staphylococcus, read-out: MIC Coagulase Negative Staphylococcus (GC 4549)): 128 µg/mL (≈ 161 µM) | MIC (Staphylococcus sp.; Staphylococcus, read-out: MIC Coagulase Negative Staphylococcus (GC 4551)): > 128 µg/mL | MIC (Staphylococcus sp.; Staphylococcus, read-out: MIC Coagulase Negative Staphylococcus (GC 6257)): 128 µg/mL (≈ 161 µM) | MIC (Staphylococcus sp.; Staphylococcus, read-out: MIC Staphylococcus aureus-SMITH (GC 4543)): > 128 µg/mL | MIC (Staphylococcus sp.; read-out: MIC Staphylococcus aureus (ATCC 29213)): > 128 µg/mL | MIC (Staphylococcus sp.; read-out: MIC Staphylococcus aureus (GC 1131)): > 128 µg/mL | MIC (Staphylococcus sp.; read-out: MIC Staphylococcus aureus (GC 3051)): > 128 µg/mL | MIC (Staphylococcus sp.; read-out: MIC Staphylococcus aureus (GC 3053)): > 128 µg/mL | MIC (Staphylococcus sp.; read-out: MIC Staphylococcus aureus (GC 4541)): > 128 µg/mL | MIC (Staphylococcus sp.; read-out: MIC Staphylococcus aureus (GC 4542)): > 128 µg/mL | MIC (Staphylococcus sp.; read-out: MIC Staphylococcus aureus (GC 4544)): > 128 µg/mL | MIC (Staphylococcus sp.; read-out: MIC Staphylococcus aureus (GC 4545)): > 128 µg/mL | MIC (Staphylococcus sp.; read-out: MIC Staphylococcus haemolyticus (GC 4546)): 128 µg/mL (≈ 161 µM) | MIC Staphylococcus aureus (ATCC 29213) (Staphylococcus sp.; strain ATCC 29213): >128 µg/mL | MIC Staphylococcus aureus (GC 1131) (Staphylococcus sp.; strain GC 1131): >128 µg/mL | MIC Staphylococcus aureus (GC 3051) (Staphylococcus sp.; strain GC 3051): >128 µg/mL | MIC Staphylococcus aureus (GC 3053) (Staphylococcus sp.; strain GC 3053): >128 µg/mL | MIC Staphylococcus aureus (GC 4541) (Staphylococcus sp.; strain GC 4541): >128 µg/mL | MIC Staphylococcus aureus (GC 4542) (Staphylococcus sp.; strain GC 4542): >128 µg/mL | MIC Staphylococcus aureus (GC 4544) (Staphylococcus sp.; strain GC 4544): >128 µg/mL | MIC Staphylococcus aureus (GC 4545) (Staphylococcus sp.; strain GC 4545): >128 µg/mL | MIC Staphylococcus haemolyticus (GC 4546) (Staphylococcus sp.; strain GC 4546): 128 µg/mL (≈ 161 µM) | MIC Coagulase Negative Staphylococcus (GC 4547) (Staphylococcus sp.; strain GC 4547): 128 µg/mL (≈ 161 µM) | MIC Coagulase Negative Staphylococcus (GC 4548) (Staphylococcus sp.; strain GC 4548): >128 µg/mL | MIC Coagulase Negative Staphylococcus (GC 4549) (Staphylococcus sp.; strain GC 4549): 128 µg/mL (≈ 161 µM) | MIC Coagulase Negative Staphylococcus (GC 4551) (Staphylococcus sp.; strain GC 4551): >128 µg/mL | MIC Coagulase Negative Staphylococcus (GC 6257) (Staphylococcus sp.; strain GC 6257): 128 µg/mL (≈ 161 µM) | MIC Staphylococcus aureus-SMITH (GC 4543) (Staphylococcus sp.; strain SMITH GC 4543): >128 µg/mL | MIC (Escherichia coli; ATCC25922, Escherichia coli (ATCC 25922), read-out: MIC, Escherichia coli (ATCC 25922)): 128 µg/mL (≈ 161 µM) | MIC (Escherichia coli; Escherichia coli (GC 4559), read-out: MIC, Escherichia coli (GC 4559)): 64 µg/mL (≈ 80.5 µM) | MIC (Escherichia coli; Escherichia coli (GC 4560), read-out: MIC, Escherichia coli (GC 4560)): 64 µg/mL (≈ 80.5 µM) | MIC (Enterococcus sp.; Enterococcus avium (GC 4558), read-out: MIC, Enterococcus avium (GC 4558)): > 128 µg/mL | MIC (Enterococcus sp.; Enterococcus faecalis (ATCC 29212), read-out: MIC, Enterococcus faecalis (ATCC 29212)): > 128 µg/mL | MIC (Enterococcus sp.; Enterococcus faecalis (GC 4553), read-out: MIC, Enterococcus faecalis (GC 4553)): > 128 µg/mL | MIC (Enterococcus sp.; Enterococcus faecalis (GC 4554), read-out: MIC, Enterococcus faecalis (GC 4554)): > 128 µg/mL | MIC (Enterococcus sp.; Enterococcus faecalis (GC 6189), read-out: MIC, Enterococcus faecalis (GC 6189)): > 128 µg/mL | MIC (Enterococcus sp.; Enterococcus faecium (GC 2243), read-out: MIC, Enterococcus faecium (GC 2243)): > 128 µg/mL | MIC (Enterococcus sp.; Enterococcus faecium (GC 4556), read-out: MIC, Enterococcus faecium (GC 4556)): > 128 µg/mL | MIC (Enterococcus sp.; Enterococcus faecium (GC 4557), read-out: MIC, Enterococcus faecium (GC 4557)): > 128 µg/mL | MIC (Enterococcus sp.; strain ATCC 29212, read-out: MIC Enterococcus faecalis (ATCC 29212)): > 128 µg/mL | MIC (Enterococcus sp.; strain GC 2242, read-out: MIC Enterococcus faecalis (GC 2242)): > 128 µg/mL | MIC (Enterococcus sp.; strain GC 2243, read-out: MIC Enterococcus faecium (GC 2243)): > 128 µg/mL | MIC (Enterococcus sp.; strain GC 2691, read-out: MIC Enterococcus faecalis (GC 2691)): > 128 µg/mL | MIC (Enterococcus sp.; strain GC 3059, read-out: MIC Enterococcus faecalis (GC 3059)): > 128 µg/mL | MIC (Enterococcus sp.; strain GC 4552, read-out: MIC Enterococcus faecalis (GC 4552)): > 128 µg/mL | MIC (Enterococcus sp.; strain GC 4553, read-out: MIC Enterococcus faecalis (GC 4553)): > 128 µg/mL | MIC (Enterococcus sp.; strain GC 4554, read-out: MIC Enterococcus faecalis (GC 4554)): > 128 µg/mL | MIC (Enterococcus sp.; strain GC 4556, read-out: MIC Enterococcus faecium (GC 4556)): > 128 µg/mL | MIC (Enterococcus sp.; strain GC 4557, read-out: MIC Enterococcus faecium (GC 4557)): > 128 µg/mL | MIC (Enterococcus sp.; strain GC 4558, read-out: MIC Enterococcus avium (GC 4558)): > 128 µg/mL | MIC (Enterococcus sp.; strain GC 6189, read-out: MIC Enterococcus faecalis (GC 6189)): > 128 µg/mL | MIC (Streptococcus sp.; strain ATCC 6301, read-out: MIC Streptococcus pneumoniae (ATCC 6301)): > 128 µg/mL | MIC (Streptococcus sp.; strain GC 1894, read-out: MIC Streptococcus pneumoniae (GC 1894)): 128 µg/mL (≈ 161 µM) | MIC (Streptococcus sp.; strain GC 4563, read-out: MIC Streptococcus pyogenes (GC 4563)): > 128 µg/mL | MIC (Streptococcus sp.; strain GC 4564, read-out: MIC Streptococcus agalactiae (GC 4564)): > 128 µg/mL | MIC (Streptococcus sp.; strain GC 4565, read-out: MIC Streptococcus pneumoniae (GC 4565)): > 128 µg/mL
